Data reported in patent US11104682B2, “Salts of TAM inhibitors” (Incyte Corporation, priority 2017, dated 2021).
Where a name gives a salt, the structure may show the parent alone.

Legend:
Axl = Axl (Homo sapiens (Human), UniProt P30530); assay: TAM Enzymatic Assay (HTRF), phosphor-Axl; format: biochemical; settings: 5.1 nM phosphor-Axl, ATP
Experimental: Autophosphorylation of Axl was carried out by incubating the recombinant Axl protein (Life Technologies, PV4275) in buffer containing 50 mM Tris, pH7.5, 0.2 mg/ml Axl, 5 mM ATP, 20 mM MgCl2 and 2 mM DTT at room temperature for 1 hour.
(§1) The kinase assay buffer contained 50 mM HEPES, pH7.5, 10 mM MgCl2, 1 mM EGTA, 0.01% NP-40 and 2 mM DTT. 0.1 ul test compounds dissolved in DMSO were transferred from compound plates to white 384-well assay plates (Greiner […] plates). The final concentration of DMSO was 1.25%. Enzyme solutions of 5.1 nM phosphor-Axl, or 0.0625 nM c-Mer (Carna Biosciences, 08-108), or 0.366 nM Tyro3 (Life Technologies, PR7480A) were prepared in assay buffer. A 1 mM stock solution of peptide substrate Biotin-[…]-amide SEQ ID NO: 1 (Quality Controlled Biochemicals, MA) dissolved in DMSO was diluted to 1 uM in assay buffer containing 2000 uM ATP. 4 ul enzyme solution (or assay buffer for the enzyme blank) was added to the appropriate wells in each plate, and then 4 ul/well substrate solution was added to initiate the reaction. […] The plate was incubated for 1 h at room temperature, and HTRF (homogenous time resolved fluorescence) signal was measured on a PHERAstar FS plate reader (BMG labtech). Percentage of inhibition was calculated for each concentration and IC50 value was generated from curve fitting with GraphPad Prism software.

Tyro3 = Tyro3 (Homo sapiens (Human), UniProt Q06418); assay: TAM Enzymatic Assay (HTRF), Tyro3; format: biochemical; settings: 0.366 nM Tyro3, ATP
Tyro3, sequence (Q06418 41-890): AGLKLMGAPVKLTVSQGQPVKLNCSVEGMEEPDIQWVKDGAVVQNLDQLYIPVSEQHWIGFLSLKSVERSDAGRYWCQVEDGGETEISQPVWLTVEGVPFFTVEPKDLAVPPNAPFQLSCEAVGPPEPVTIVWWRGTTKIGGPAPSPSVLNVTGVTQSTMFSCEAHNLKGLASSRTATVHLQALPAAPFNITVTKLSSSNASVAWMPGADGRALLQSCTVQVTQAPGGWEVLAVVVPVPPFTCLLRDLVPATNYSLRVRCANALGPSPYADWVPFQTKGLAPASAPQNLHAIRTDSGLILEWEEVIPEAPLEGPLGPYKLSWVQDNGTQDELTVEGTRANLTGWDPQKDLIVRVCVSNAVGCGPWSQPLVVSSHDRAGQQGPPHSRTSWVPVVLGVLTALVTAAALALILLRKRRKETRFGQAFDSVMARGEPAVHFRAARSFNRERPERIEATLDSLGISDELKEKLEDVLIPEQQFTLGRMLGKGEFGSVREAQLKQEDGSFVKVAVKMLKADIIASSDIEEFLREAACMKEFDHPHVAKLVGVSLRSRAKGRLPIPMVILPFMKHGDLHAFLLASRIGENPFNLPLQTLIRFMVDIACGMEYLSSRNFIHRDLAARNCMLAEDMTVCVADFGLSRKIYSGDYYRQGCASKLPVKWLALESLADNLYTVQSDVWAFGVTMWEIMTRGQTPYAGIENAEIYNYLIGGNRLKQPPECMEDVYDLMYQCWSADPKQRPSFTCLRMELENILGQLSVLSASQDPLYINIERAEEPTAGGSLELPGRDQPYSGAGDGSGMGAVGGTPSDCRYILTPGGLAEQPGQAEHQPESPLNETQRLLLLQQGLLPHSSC
Experimental: as §1, with “reaction. The plate was protected from light and incubated at room temperature for 60 min.” for “reaction.”

[1] = Solubility of Compound I maleate salt in solvents (saturated solution, HPLC); format: physicochemical; settings: thermodynamic from solid; for solubility at 48 h: 25 °C, 25±1° C.; for solubility at 24 h: 50 °C, 50±1° C.
c-Mer = c-Mer (Homo sapiens (Human), UniProt Q12866); assay: TAM Enzymatic Assay (HTRF), c-Mer; format: biochemical; settings: 0.0625 nM c-Mer, ATP
c-Mer, sequence (Q12866 21-999): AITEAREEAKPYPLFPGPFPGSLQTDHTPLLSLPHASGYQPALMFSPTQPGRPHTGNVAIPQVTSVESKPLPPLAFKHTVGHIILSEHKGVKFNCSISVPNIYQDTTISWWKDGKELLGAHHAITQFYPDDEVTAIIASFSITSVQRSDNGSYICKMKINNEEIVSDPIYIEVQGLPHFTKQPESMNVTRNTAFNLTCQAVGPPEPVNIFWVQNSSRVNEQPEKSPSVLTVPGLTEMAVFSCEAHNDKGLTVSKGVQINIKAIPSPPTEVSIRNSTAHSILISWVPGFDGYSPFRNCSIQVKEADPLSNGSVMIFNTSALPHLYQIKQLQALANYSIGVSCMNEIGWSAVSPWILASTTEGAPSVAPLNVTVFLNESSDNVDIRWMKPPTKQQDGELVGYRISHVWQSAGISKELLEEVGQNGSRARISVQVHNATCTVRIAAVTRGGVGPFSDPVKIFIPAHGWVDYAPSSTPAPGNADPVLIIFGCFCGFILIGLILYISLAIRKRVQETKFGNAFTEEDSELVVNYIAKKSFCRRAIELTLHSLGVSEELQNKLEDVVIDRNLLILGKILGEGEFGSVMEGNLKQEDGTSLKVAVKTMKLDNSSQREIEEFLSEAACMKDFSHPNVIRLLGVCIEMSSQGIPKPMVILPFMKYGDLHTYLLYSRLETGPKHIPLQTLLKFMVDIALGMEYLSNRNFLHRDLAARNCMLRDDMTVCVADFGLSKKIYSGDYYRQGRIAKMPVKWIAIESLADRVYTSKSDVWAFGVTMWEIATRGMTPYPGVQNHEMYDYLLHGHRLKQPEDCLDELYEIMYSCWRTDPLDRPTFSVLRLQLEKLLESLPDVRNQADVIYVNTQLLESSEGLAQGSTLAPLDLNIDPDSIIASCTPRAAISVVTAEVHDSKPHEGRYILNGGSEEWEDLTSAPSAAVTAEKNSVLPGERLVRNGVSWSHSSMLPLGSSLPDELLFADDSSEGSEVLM
Experimental: as §1, with “reaction. The plate was protected from light and incubated at room temperature for 60 min.” for “reaction.”

[2] = organic solvent or mixture, solvent 1,4-Dioxane
[3] = organic solvent or mixture, solvent 1-Propanol
[4] = organic solvent or mixture, solvent 2-Methoxyethanol
[5] = organic solvent or mixture, solvent Acetone
[6] = organic solvent or mixture, solvent Chloroform
[7] = organic solvent or mixture, solvent DMF
[8] = organic solvent or mixture, solvent DMSO
[9] = organic solvent or mixture, solvent Dichloromethane
[10] = organic solvent or mixture, solvent EtOAc
[11] = organic solvent or mixture, solvent EtOH
[12] = organic solvent or mixture, solvent Ethyl formate
[13] = organic solvent or mixture, solvent IPA
[14] = organic solvent or mixture, solvent IPAc
[15] = organic solvent or mixture, solvent MEK
[16] = organic solvent or mixture, solvent MIBK
[17] = organic solvent or mixture, solvent MTBE
[18] = organic solvent or mixture, solvent MeCN
[19] = organic solvent or mixture, solvent Methanol
[20] = organic solvent or mixture, solvent THF
[21] = organic solvent or mixture, solvent Toluene
[22] = organic solvent or mixture, solvent n-BuOH

Axl, sequence (P30530 26-894): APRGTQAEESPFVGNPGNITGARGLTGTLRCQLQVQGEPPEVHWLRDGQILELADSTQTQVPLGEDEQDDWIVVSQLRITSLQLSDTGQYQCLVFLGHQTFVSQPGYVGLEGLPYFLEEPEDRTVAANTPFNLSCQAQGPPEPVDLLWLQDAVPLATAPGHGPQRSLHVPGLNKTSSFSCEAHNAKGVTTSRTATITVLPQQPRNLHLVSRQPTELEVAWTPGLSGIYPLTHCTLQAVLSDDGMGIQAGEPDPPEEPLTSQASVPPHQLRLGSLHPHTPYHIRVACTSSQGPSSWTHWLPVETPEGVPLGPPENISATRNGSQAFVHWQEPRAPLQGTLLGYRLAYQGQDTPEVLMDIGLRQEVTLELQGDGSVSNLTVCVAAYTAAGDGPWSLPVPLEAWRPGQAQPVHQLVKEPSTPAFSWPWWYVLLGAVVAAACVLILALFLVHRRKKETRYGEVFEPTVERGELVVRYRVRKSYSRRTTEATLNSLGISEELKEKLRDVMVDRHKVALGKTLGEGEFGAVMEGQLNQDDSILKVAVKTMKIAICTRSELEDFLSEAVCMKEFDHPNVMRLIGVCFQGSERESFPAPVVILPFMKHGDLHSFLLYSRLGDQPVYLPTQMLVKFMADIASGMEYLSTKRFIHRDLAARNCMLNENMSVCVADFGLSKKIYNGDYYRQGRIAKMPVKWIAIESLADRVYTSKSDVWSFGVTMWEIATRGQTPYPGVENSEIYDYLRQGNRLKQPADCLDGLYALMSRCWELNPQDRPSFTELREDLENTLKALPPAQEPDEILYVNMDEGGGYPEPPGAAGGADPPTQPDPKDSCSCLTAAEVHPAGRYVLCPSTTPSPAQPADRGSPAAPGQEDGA

In the case of `CC(C)C(=O)N1CCC(c2cc(-c3ccc(NC(=O)c4cn(C(C)C)c(=O)n(-c5ccccn5)c4=O)cc3)c3c(N)ncnn23)CC1` [Compound I maleate salt, N-(4-(4-Amino-7-(1-isobutyrylpiperidin-4-yl)pyrrolo[1,2-f][1,2,4]triazin-5-yl)phenyl)-1-isopropyl-2,4-dioxo-3-(pyridin-2-yl)-1,2,3,4-tetrahydropyrimidine-5-carboxamide maleate], the IC50 (Axl) is reported as at most 5 nM, the IC50 (Tyro3) is reported as 10 to 100 nM and the solubility at 48 h [1, 2] is reported as 2310 µg/mL. It also gave a solubility at 48 h [1, 3] of 440 µg/mL, a solubility at 48 h ([1]; organic solvent or mixture, solvent 2% DCM/98% MeOH (V/V)) of 1460 µg/mL and a solubility at 48 h [1, 4] of 5960 µg/mL. For the same compound, the solubility at 48 h ([1]; organic solvent or mixture, solvent 10% DCM/90% MeOH (V/V)) was 1880 µg/mL, the solubility at 48 h [1, 5] was 1680 µg/mL and the solubility at 48 h [1, 6] was 6120 µg/mL. The solubility at 48 h ([1]; organic solvent or mixture, solvent DCM/MeOH(2/1)) was over 50000 µg/mL, the solubility at 48 h [1, 7] was over 50000 µg/mL and the solubility at 48 h [1, 8] was over 50000 µg/mL. It also gave a solubility at 48 h [1, 9] of 24400 µg/mL, a solubility at 48 h [1, 10] of 180 µg/mL and a solubility at 48 h [1, 11] of 650 µg/mL. The solubility at 48 h [1, 12] was 680 µg/mL, the solubility at 48 h [1, 13] was 160 µg/mL and the solubility at 48 h [1, 14] was 270 µg/mL. It also gave a solubility at 48 h [1, 15] of 280 µg/mL, a solubility at 48 h [1, 16] of 430 µg/mL and a solubility at 48 h [1, 17] of 80 µg/mL. For the same compound, the solubility at 48 h [1, 18] was 280 µg/mL, the solubility at 48 h [1, 19] was 1640 µg/mL and the solubility at 48 h [1, 20] was 920 µg/mL. The solubility at 48 h [1, 21] was 180 µg/mL, the solubility at 48 h [1, 22] was 210 µg/mL and the solubility at 48 h ([1]; solvent Water) was 20 µg/mL. For the same compound, the solubility at 24 h [1, 2] was 4620 µg/mL, the solubility at 24 h [1, 3] was 1310 µg/mL and the solubility at 24 h [1, 4] was 14800 µg/mL. It also gave a solubility at 24 h [1, 5] of 3050 µg/mL, a solubility at 24 h [1, 6] of 13700 µg/mL and a solubility at 24 h [1, 7] of over 50000 µg/mL. For the same compound, the solubility at 24 h [1, 8] was over 50000 µg/mL, the solubility at 24 h [1, 9] was 33700 µg/mL and the solubility at 24 h [1, 10] was 400 µg/mL. The solubility at 24 h [1, 11] was 1930 µg/mL, the solubility at 24 h [1, 12] was 990 µg/mL and the solubility at 24 h [1, 13] was 680 µg/mL. For the same compound, the solubility at 24 h [1, 14] was 330 µg/mL, the solubility at 24 h [1, 15] was 2190 µg/mL and the solubility at 24 h [1, 16] was 740 µg/mL. The solubility at 24 h [1, 17] was 100 µg/mL, the solubility at 24 h [1, 18] was 680 µg/mL and the solubility at 24 h [1, 19] was 3090 µg/mL. The solubility at 24 h [1, 20] was 1630 µg/mL, the solubility at 24 h [1, 21] was 200 µg/mL and the solubility at 24 h [1, 22] was 1100 µg/mL. The solubility at 24 h ([1]; solvent Water) was 40 µg/mL and the IC50 (c-Mer) was at most 5 nM.

With `CC(C)C(=O)N1CCC(c2cc(-c3ccc(NC(=O)c4cn(C(C)C)c(=O)n(-c5ccccc5)c4=O)cc3)c3c(N)ncnn23)CC1` [Compound II hemi-sulfuric acid salt, N-(4-(4-Amino-7-(1-isobutyrylpiperidin-4-yl)pyrrolo[1,2-f][1,2,4]triazin-5-yl)phenyl)-1-isopropyl-2,4-dioxo-3-phenyl-1,2,3,4-tetrahydropyrimidine-5-carboxamide hemisulfate] the IC50 (Axl) was at most 5 nM, the IC50 (Tyro3) was 10 to 100 nM and the IC50 (c-Mer) was at most 5 nM.
